Test results taken from paper PMC6048268, “Resveratrol Inhibits Key Steps of Steroid Metabolism in a Human Estrogen-Receptor Positive Breast Cancer Model: Impact on Cellular Proliferation” (Frontiers in Pharmacology, 2018).
Values joined by “and” are separate entries in the source; they are usually repeats but may differ in a detail not shown here. Equal entries are not always repeated.

What was measured:
MDA-MB-231 cells [1] = details: for mean formation rate: MDA-MB-231, 100 nM DHEA; for mean formation rate / Km / Vmax: 48 h; for Km / Vmax: MDA-MB-231, precursor DHEA or E1 0–100 nM, Michaelis–Menten
Experimental: (§1) Briefly, cartridges were preconditioned with 2 × 1.0 ml acetonitrile and 3 × 1.0 ml ammonium acetate buffer (10 mM, pH = 5.0), and the samples were loaded onto the columns. After washing with 1 × 1.0 ml ammonium acetate buffer (10 mM, pH = 5.0) and 2 × 1.0 ml acetonitrile/ammonium acetate buffer (10 mM, pH 5.0) 10:90 (v/v), the analytes were eluted using 2 × 650 μl acetonitrile/ammonium acetate buffer (10 mM, pH = 5.0) 95:5 (v/v) and evaporated until dry. Subsequently, samples were reconstituted in 270 μl acetonitrile/ammonium acetate buffer (10 mM, pH = 5.0) 25:75 (v/v) and stored at -80°C until further LC–HRMS analysis.
(§2) After media collection, cell monolayers were washed five times with 2.0 ml DPBS, detached using 400 μl TrypLE® solution (37°C, 5 min), mixed with 600 μl DPBS and transferred into sample vials. Aliquots of these suspensions (100 μl each) were diluted and counted using the Casy® TT Cell Counter to determine the exact number of cells per sample well. The remaining cell suspensions (900 μl each) were gently centrifuged (1000 rpm, 8 min), and the supernatants were discarded. The cell pellets were subsequently resuspended in 100 μl aqueous ammonium acetate buffer (10 mM, pH = 5.0) and lysed by five freeze-thaw-cycles in liquid nitrogen (3 min each), followed by thawing at ambient temperature. Ammonium acetate buffer (1000 μl) was added, and the suspensions were centrifuged (14000 rpm, 5 min). Subsequently, the supernatants were concentrated using the same SPE protocol as described above. All processed samples were then stored at -80°C until further LC–HRMS analysis. For each condition, three biologically independent experiments were performed; the reported values represent the overall means ± SD of all values.
(§3) LC was performed with an UltiMate 3000 RSLC-series system coupled to a maXis HD ESI-Qq-TOF mass spectrometer (Bruker Corporation, Bremen, Germany). A Phenomenex Luna® 3 μm C18(2) 100 Å LC column (250 mm × 4.6 mm I.D.; Phenomenex, Inc., Torrance, CA, United States), preceded by a Hypersil® BDS-C18 guard column (5 μm, 10 mm × 4.6 mm I.D.; Thermo Fisher Scientific, Inc.) was used for the separation of the analytes at a flow rate of 1.0 ml/min and a temperature of 43°C. […] The ESI ion source settings were as follows: capillary voltage: -4.5 kV; dry gas flow rate: 8.0 l/min N2; nebulizer: 1.0 bar N2; and dry temperature: 200°C. The ion transfer parameters were set to 400 Vpp funnel RF and 300 Vpp multipole RF, the quadrupole ion energy was 8.0 eV, and the collision cell parameters were as follows: collision RF, 1100 Vpp; collision energy, 10.0 eV; transfer time, 38 μs; and pre-pulse storage, 18 μs. In the range of m/z 150–500, full-scan mass spectra were recorded.
(§4) The modes of inhibition were subsequently determined from Lineweaver–Burk plots, and the corresponding Ki values were calculated from Dixon plots using GraphPad Prism 6.0.

MCF-7 cells [2] = details: for mean formation rate: MCF-7, 100 nM DHEA; for mean formation rate / Vmax: 48 h; for Vmax: MCF-7, precursor DHEA or E1 0–100 nM, Michaelis–Menten
Experimental: as §1, §2, §3, §4

[3] = tested on: steroid metabolism in MCF-7 cells; experiment: Inhibition of steroid metabolism by RES in MCF-7 cells (LC–HRMS)
Experimental: as §1, §2, §3, §4

MDA-MB-231 cells [4] = experiment: Metabolism of RES in MDA-MB-231 cells (HPLC); details: RES 0–100 μM, 48 h
Experimental: (§5) After 48 h, the cellular media (100 μl) were mixed with 200 μl ice-cold (-20°C) methanol and subsequently centrifuged (14000 rpm, 5 min). The clear supernatants were then diluted 1:1 with aqueous ammonium acetate buffer (5 mM, pH = 7.4), and 80 μl of the samples were injected onto the HPLC column. […] Calibration of the chromatogram was accomplished using the external standard method.
as §4

MCF-7 cells [5] = experiment: Metabolism of RES in MCF-7 cells (HPLC); details: RES 0–100 μM, 48 h
Experimental: as §5, §4

Compound | mean formation rate (MDA-MB-231 cells [1]) [fmol/10^6 cells/h] | Km (MDA-MB-231 cells [1]) [µM] | Vmax (MDA-MB-231 cells [1]) [fmol/10^6 cells/h] | mean formation rate (MCF-7 cells [2]) [fmol/10^6 cells/h] | Vmax (MCF-7 cells [2]) | Km ([3]; MCF-7, 0 μM RES) [µM] | Vmax ([3]; MCF-7, 0 μM RES) [fmol/10^6 cells/h] | Km ([3]; MCF-7, 5 μM RES) [µM] | Km ([3]; MCF-7, 10 μM RES) [µM] | Vmax ([3]; MCF-7, 10 μM RES) | Km ([3]; MCF-7, 25 μM RES) [µM] | Vmax ([3]; MCF-7, 25 μM RES) | Km ([3]; MCF-7, 50 μM RES) [µM] | Vmax ([3]; MCF-7, 50 μM RES) | Km ([3]; MCF-7, 100 μM RES) [µM] | Vmax ([3]; MCF-7, 100 μM RES) | formation of RES metabolite (MDA-MB-231 cells [4]) | also measured
C[C@]12CC[C@H](OS(=O)(=O)O)CC1=CC[C@@H]1[C@@H]2CC[C@]2(C)C(=O)CC[C@@H]12 [DHEA-S, dehydroepiandrosterone-3-O-sulfate] | 0.14 ± 0.02 | 0.0554 ± 0.0205 | 0.22 ± 0.04 | 870.0 ± 79.1 | 2873.0 ± 327.4 fmol/10^6 cells/h and 2873.0 ± 527.4 fmol/10^6 cells/h and 2873.0 ± 327.4^∗ fmol/10^6 cells/h | 0.329 ± 0.0522 | 2873.0 ± 57.4 | 0.312 ± 0.0719 | 0.324 ± 0.0537 | 2280.1 ± 81.4^∗ fmol/10^6 cells/h | 0.404 ± 0.0931 | 1797.6 ± 48.9^∗ fmol/10^6 cells/h | 0.403 ± 0.0347 | 993.5 ± 74.8^∗ fmol/10^6 cells/h | 0.385 ± 0.0466 | 522.5 ± 54.8^∗ fmol/10^6 cells/h | – | Vmax ([3]; MCF-7, 5 μM RES): 2766.2 ± 53.9 fmol/10^6 cells/h
O=C(O)C1OC(Oc2ccc(C=Cc3cc(O)cc(O)c3)cc2)C(O)C(O)C1O [RES-4G, trans-resveratrol-4′-O-(β-D-glucuronide)] | – | – | – | – | – | – | – | – | – | – | – | – | – | – | – | – | below the detection limit | formation of RES metabolite (MCF-7 cells [5]): below the detection limit
O=S(=O)(O)Oc1ccc(/C=C/c2cc(O)cc(OS(=O)(=O)O)c2)cc1 [RES-DS, trans-resveratrol-3-O-4′-O-disulfate] | – | – | – | – | – | – | – | – | – | – | – | – | – | – | – | – | below the detection limit | –
C[C@]12CC[C@@H]3c4ccc(O)cc4CC[C@H]3[C@@H]1C[C@@H](O)[C@@H]2O [E3, 16α-hydroxy-17β-estradiol] | – | – | – | – | – | – | – | – | – | – | – | – | – | – | – | – | – | formation rate (MDA-MB-231 cells [1]; MDA-MB-231, 100 nM E1, 48 h): below the LLOQ; formation rate (MCF-7 cells [2]; MCF-7, 100 nM E1, 48 h): 0.57 ± 0.06 fmol/10^6 cells/h
C[C@]12CC[C@H]3[C@@H](CCC4=CC(=O)CC[C@@]43C)[C@@H]1CC[C@@H]2O [T, testosterone] | 57.1 ± 6.2 | 0.0563 ± 0.0214 | 91.2 ± 15.9 | 4.78 ± 0.38 | 9.96 ± 1.42^∗ fmol/10^6 cells/h | 0.107 ± 0.0063 | 9.95 ± 0.42 | 0.107 ± 0.0059 | 0.107 ± 0.0038 | 18.4 ± 0.7^∗ fmol/10^6 cells/h | 0.106 ± 0.0024 | 26.7 ± 0.4^∗ fmol/10^6 cells/h | 0.106 ± 0.004 | 35.9 ± 0.8^∗ fmol/10^6 cells/h | 0.103 ± 0.0048 | 39.7 ± 1.1^∗ fmol/10^6 cells/h | – | formation rate in the presence of RES ([3]; MCF-7, 100 nM DHEA + 100 μM RES, 48 h): 19.4 ± 1.6 fmol/10^6 cells/h
